Entries after “also recorded” stand apart in the source; their conditions may differ. Counter-ions that a name gives are not always drawn. Like-named read-outs stand apart in the source and are kept apart here.
Columns and labels:
[1] = system: bed bugs; assay: bed bug luring assay; type: in vivo; conditions: cottonball with 100 microliters solution, total 100 mg compound(s), 10 bed bugs, overnight
Method: Assays were conducted to measure the ability of compounds and compound combinations to attract bed bugs. A testing arena habitat comprising a small plastic container was placed inside of a larger, secondary container. The top half inch was removed from two bathroom sized solo cups and each cup was placed on opposite sides of the testing arena habitat, one inch away from the wall. Each outer part of the cup was textured using sandpaper, as bed bugs cannot climb smooth surfaces. A paper towel was used to line the floor of the testing arena habitat. The top, removed portion of one of the solo cups was placed mouth side down in the center of the arena. In one of the cups, a cottonball was placed and treated with 100 microliters of compound or compound combination solution [comprising a total of 100 mg of compound(s).] 10 bed bugs were placed within the center cut off cup top and the testing arena habitat was covered and placed within a dark, climate controlled room overnight. The next day, the number of bed bugs that crawled into the baited cup were recorded and the % attractancy was calculated as the percentage of bugs that crawled into the baited cup as compared to the total number of bed bugs. In the Table, “Att” refers to attractancy and “Cmpd” refers to compound.

[2] = system: Aedes aegypti mosquitoes; assay: netsphere assay; type: in vivo; conditions: baited BG-Sentinel trap, overnight collection; FIG. 3
Method: The netsphere assay was conducted in a semi-field containment area. The containment area was 1,000 square feet in size and environmental cues such as temperature, humidity, lighting and airflow were controlled to replicate conditions that Aedes aegypti mosquitoes would encounter in the wild. The containment area was conditioned for 2 hours prior to experimentation to allow for equalization of environmental conditions. Fifty female and five male mosquitoes were then released into the chamber and given one hour to acclimate to the environment. Following this, a BG-Sentinel trap (Biogents AG, Regensburg, Germany) was baited with either cyclopentanone, 2-pentanone or 2,4-lutidine and placed in the chamber in the presence of a non-baited BG-Sentinel (as a negative control for trap attraction). The collection was allowed to proceed overnight during which lighting conditions in the chamber were set to mimic those of starlight. The following day, mosquitoes caught in the trap were frozen at −20° C. and counted. These counts were compared to control experiments where CO2 from a tank, at a flow rate of 250 ml/min, was used as bait.

[3] = system: female mosquitoes; assay: whole plant or invertebrate; conditions: 2 h; for mortality at 200 µg/mL: read-out: % mortality with 0.2 mg/ml; for mortality at 2000 µg/mL: read-out: % mortality with 2 mg/ml
[4] = system: larvae; assay: larvicidal activity assay; type: in vivo; conditions: for pest or weed control at 0.25 %: read-out: % Lethality with 0.25% compound conc.; for pest or weed control at 100 ppm: read-out: % Lethality at 100 ppm
Method: A 6-well plate (Corning Life Sciences, Tewksbury, Mass.) is used to test a compound's larvicidal activity. […] After a 24 hour exposure, the number of dead larvae are counted and recorded.
The results are presented in Table 17 as % lethality (the number of dead larvae divided by the total number of larvae).

[5] = system: cpA neurons; assay: extracellular single-sensillum electrophysiology: activation of cpA neuronal activity; conditions: for Class: Table 6, single compounds, increase over baseline cpA neuronal activity; for Comp B Class: component B tested individually; for Class B (activator class of the individual component): Table 15, single component alone, Mod Actv
[6] = system: Aedes aegypti; assay: landing assay; type: in vivo; conditions: mesh treated with 1% in acetone, FIG. 2; for number of landings: 5 minute time course
Text: Behavior assays were developed to aid in the evaluation of compounds and compositions of the present invention. These assays include the landing assay and the netsphere assay. These assays were utilized to determine the effectiveness of said compounds and compositions with regard to attracting or repelling mosquitoes of the species Aedes aegypti. Due to the highly conserved nature of the carbon dioxide receptor across the order Diptera, the results obtained for Aedes aegypti are likely to be intuitive with regard to other members of the mosquito family Culicidae as well as with regard to other dipteran family members.
The landing assay is an assay used to test for attraction toward human skin. A human gloved hand with an opening cutout protected by 2 layers of mesh was inserted into a 12×12×12 inch cage of female mosquitoes. The first layer of mesh was used to protect the human from chemical contact as well as mosquito contact. A second layer of mesh was treated with a chemical compound or composition that had been dissolved at a concentration of 1% in acetone and allowed to dry on said mesh for three minutes. This second layer of mesh was placed on top of the first mesh layer. The two mesh layers were separated by outer magnetic strips to hold the layers in place on the glove. This experimental design allows the test subjects, starved female mosquitoes, to be exposed to human skin odors as well as the compound or composition concurrently. The cage contained 30 female and 3 male mosquitoes. The landing of mosquitoes on the treated surface was videotaped over a 5 minute time course and the number of landings during that time period was recorded. Mesh treated with acetone alone was used as a negative control. This experiment was done in triplicate for each compound or composition tested. The results from one such experiment are pictured in FIG. 2.

[7] = system: cpA neurons; assay: extracellular single-sensillum electrophysiology: inhibition of CO2-responsive (cpA) neuronal activity; conditions: Table 10; single compounds; percent reduction in cpA activity compared to baseline
[8] = system: bed bugs (Cimex lectularius); assay: bed bug repellency assay; type: in vivo; conditions: compound or combination on filter paper harborage, ten bed bugs
Procedure, shortened: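 Ten Cimex lectularius per talc-lined petri dish chose between folded filter-paper harborages treated with isopropyl alcohol alone or compound in isopropyl alcohol […], dried before use. Bugs moved freely 5 min; occupancy beneath each tent recorded, with a solvent-only pairing as control.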

[9] = system: cpB and cpC neurons; assay: extracellular single-sensillum electrophysiology: beta activators; type: in vivo, Aedes aegypti; conditions: for Class A (beta activator, individual component): Table 15, single component alone, Beta Actv; for beta activator (stimulates cpB and cpC neuronal activity): single compound
Text: Three types of CO2-responsive neurons reside in the maxillary palp of mosquitoes. These include cpA, cpB and cpC neurons. […] These neurons produce spikes with much lower amplitude than those produced by cpA neurons. Although the activity from cpB and cpC neurons cannot easily be distinguished from one another, their collective activity can be distinguished from cpA neurons due to their characteristic spikes. This is useful in the identification of compounds and compositions that only activate or inhibit cpB and cpC neurons or compounds and compositions that activate or inhibit both.
Carbon dioxide receptor neurons are housed within the basiconic sensilla of the mosquito maxillary palp. While activity from cpA neurons produces the largest amplitude spike, cpB and cpC neurons present in this region are also responsive to skin odors. Activity from these neurons can also be detected through the electrophysiological methods described in Example 1.
Although the activity from cpB and cpC neurons cannot easily be distinguished from one another, their collective activity can be distinguished from cpA neurons due to their production of spikes with much lower amplitude than those produced by cpA neurons.

[10] = system: female mosquitoes; conditions: in vivo
[11] = 0.25% compound, 24 hour exposure, dead larvae / total larvae
[12] = 100 ppm compound, 24 hour exposure, dead larvae / total larvae

Compound	% Att (bed bug attractancy) [1]	mortality at 200 µg/mL [3]	mortality at 2000 µg/mL [3]	pest or weed control at 0.25 % [4, 11]	pest or weed control at 100 ppm [4, 12]	Class [5]	% Rep (bed bug repellency) [8]	further results
O=C1CCCC1 [OLI0008, cyclopentanone]	50%	0%	0%	85%	0%	Strong Activator (strong activators yield an increase in activity that is >60 spk/sec over baseline neuronal activity)		behaviour in netsphere assay (attractant or repellent) [2]: act as attractants; also recorded: attract mosquitoes; number of landings [6]: 39 landings; behaviour in landing assay (lure or repellent) [6]: act as lures
COc1nccnc1C [OLI0070, 2-methoxy-3-methylpyrazine]	10%	0%	0%	100%	0%			Class [7]: Strong Inhibitor (strong inhibitors (reducing activity >60%))
CCc1cnccn1 [OLI0002, 2-ethylpyrazine]		0%	0%	50%	0%	Strong Activator (strong activators yield an increase in activity that is >60 spk/sec over baseline neuronal activity)	49%	activator class of single compound [5]: activator; number of landings [6]: 12 landings; behaviour in landing assay (lure or repellent) [6]: repellent
COc1cnccn1 [OLI0003, 2-methoxypyrazine]	30%	0%	0%	100%	0%	Strong Activator (strong activators yield an increase in activity that is >60 spk/sec over baseline neuronal activity)	22%	
C/C=C/C(=O)OC [OLI0026, methyl crotonate]	20%	0%	0%	87.5%	0%	Moderate Activator (Moderate activators yield an increase in neuronal activity that is between 40 and 60 spk/sec over baseline neuronal activity)	38%	Comp B Class ([5]; Table 9): Mod; Class B (activator class of the individual component) [5]: Mod
CCC(=O)OCCC(C)C [OLI0099, isoamyl propionate]	10%	0%	0%	0%	0%		17%	Class A (beta activator, individual component) [9]: Beta; beta activator (stimulates cpB and cpC neuronal activity) [9]: beta activators
COC(=O)CCC(C)=O [OLI0027, methyl levulinate]	10%	0%	0%	50%	0%	Moderate Activator (Moderate activators yield an increase in neuronal activity that is between 40 and 60 spk/sec over baseline neuronal activity)	20%	Class A (beta activator, individual component) [9]: Beta; beta activator (stimulates cpB and cpC neuronal activity) [9]: beta activators; Comp A Class ([5]; Table 9, component A tested individually): Mod; activator class of single compound [5]: moderate cpA activator
CCCCCCOC=O [OLI0097, hexyl formate]	30%	0%	0%				44%	pest or weed control at 100 ppm ([4]; 24 h): 0%; pest or weed control at 0.25 % ([4]; 24 h): 5%; Class A (beta activator, individual component) [9]: Beta; beta activator (stimulates cpB and cpC neuronal activity) [9]: beta activators
Cc1ccnc(C)c1 [OLI0001, 2,4-lutidine]		0%	0%	100%	0%	Strong Activator (strong activators yield an increase in activity that is >60 spk/sec over baseline neuronal activity)	39%	behaviour in netsphere assay (attractant or repellent) [2]: acted as a repellent; effect on CO2-receptor activity (FIG. 1) ([5]; 1% concentration in paraffin oil): activator; activator class of single compound [5]: strong activator (spike rate of 60-100 spk/sec over the baseline activity of the neuron)
CCCOC=O [OLI0063, propyl formate]	30%	0%	0%			Mild Activator (mild activators yield an increase in neuronal activity that is between 20 and 40 spk/sec over baseline neuronal activity)		pest or weed control at 100 ppm ([4]; 24 h): 0%; pest or weed control at 0.25 % ([4]; 24 h): 0%; Comp B Class ([5]; Table 9): Mild
CSC(C)=O [OLI0025, methanethiol acetate]	20%					Moderate Activator (Moderate activators yield an increase in neuronal activity that is between 40 and 60 spk/sec over baseline neuronal activity)		% Lethality with 0.25% compound conc. [4, 11]: 100% lethal; % Lethality at 100 ppm [4, 12]: 0% lethal; % mortality with 0.2 mg/ml [10]: 0%; % mortality with 2 mg/ml [10]: 0%; Comp B Class ([5]; Table 9): Mod; Class B (activator class of the individual component) [5]: Mod

Source: patent US20150216182A1, “COMPOSITIONS AND METHODS OF THE ATTRACTION AND REPULSION OF INSECTS” (Olfactor Laboratories, Inc., priority 2012, published 2015)
